Legend:
[1] = Charcoal MTZ adsorption kinetics study (PMD and direct donor sampling); assay type: physicochemical; conditions: 37° C., first minute after charcoal addition
Procedure: A charcoal suspension was prepared at least 24 hours before use by adding 0.6 g of activated charcoal (Sigma Chemical, St. Louis, Mo.) to 100 mL of 0.6% Dextran Solution (Birkmeier et al., 1995). A donor solution of MTZ in 0.005N NaOH was made with an initial concentration of C0=200 μg/mL and volume of 48 mL. A probe was immersed in the solution, and PMD was started before adding the charcoal using a dialysate that initially contained no MTZ. Samples were collected every 10 seconds, using a resting time of 8 seconds, a flow rate of 100 μL/min, and a sample volume of 5 μL. After collecting at least six samples, 2 mL of the charcoal suspension was quickly (in 1-2 seconds) mixed into 48 mL of stirred MTZ solution, giving a final volume of 50 mL. […] Samples were collected during 10 second intervals, and the start times for the sampling intervals were 0, 0.2, 0.4, 0.7, 1, 2, 5, 10 and 30 minutes. The flow rate was 100 μL/min, the rest time was 8 seconds, and the sample volume was 5 μL. The samples were immediately analyzed using HPLC. […] Direct sampling of the donor was also done at various times for comparison with the PMD data. The direct donor samples were immediately filtered to remove the activated charcoal and analyzed using HPLC.

[2] = at 37° C.; cited from earlier work
[3] = tested on: red blood cells; conditions: in the first 1-2 minutes; cited from earlier work
[4] = Benzocaine release from self-emulsifying microemulsion systems by PMD; assay type: physicochemical; conditions: occupying the probe window for one minute; Tween 20:Cremophor EL:peppermint oil systems diluted 1:25 in water
Procedure: The medium outside the probe served as the receiver in this case. Before the PMD experiments, various anhydrous liquid systems were made, to be used to release benzocaine. In all cases, two surfactants, Tween 20 and Cremophor EL (both from Sigma Chemical, St. Louis, Mo.), were blended in a 2:1 (weight:weight) ratio. Various amounts of peppermint oil were added (from 0 to 30% oil by weight) to make the anhydrous systems. Benzocaine (50 mg per gram of peppermint oil) was subsequently added to each system, and stirring was done until all benzocaine was dissolved and distributed within the oil and surfactant blend. These anhydrous systems were then diluted 1:25 in water, and used as the dialysate. A probe was immersed in 50 mL of water (which served as the receiver) that initially contained no drug. Since benzocaine is a weak base, various pH values were used, but the pH of the water and dialysate were the same in all cases. The dialysate (containing the microemulsions and acting as the donor) was pumped into the probe window, allowed to remain at rest for various resting times (5-100 seconds), pumped out and collected, and subsequently assayed for benzocaine content to determine the fraction of benzocaine lost as a function of the total time in the probe window. The flow rate Q was 100 μL/min and the sample volume was 5 μL.

CC(=O)/N=c1/sc(S(N)(=O)=O)nn1C [MTZ, methazolamide]
decline of concentration during the first minute [1]: ~50%
diffusion coefficient (value of the reference drug) [2]: 4×10^−6 cm^2/s
decrease of buffer concentration by uptake into red blood cells [3]: 50%

CCOC(=O)c1ccc(N)cc1 [benzocaine]
benzocaine lost from microemulsion dialysate [4]: ≤ 90%
